# Source: patent US5089515A, “Lipid-peroxide formation inhibiting composition and novel compounds useful therefor” (priority 1986, dated 1992)
# Entries after “also recorded” stand apart in the source; their conditions may differ.
# Tested on: lipid peroxidation due to active oxygen species
# Assay: not given
# Settings: prior art; cited from earlier work
row,Molecule,inhibition of lipid peroxidation
1,COC1=C(OC)C(=O)C(CCCCCCCCCCO)=C(C)C1=O [Idebenon],known to inhibit lipid peroxidation due to active oxygen species
2,CCN(CC)Cc1nccn1-c1ccc([N+](=O)[O-])cc1C(=O)c1ccccc1Cl [nizofenone],known to inhibit lipid peroxidation due to active oxygen species
3,vitamin E,known to inhibit lipid peroxidation due to active oxygen species; also recorded: not sufficient to inhibiting lipid peroxidation

# Tested on: central nervous system
# Assay: not given
# Settings: IYAKUHIN KENKYU, 16, 1 (1985); cited from earlier work
row,Molecule,depressing the central nervous system
1,CCN(CC)Cc1nccn1-c1ccc([N+](=O)[O-])cc1C(=O)c1ccccc1Cl [nizofenone],defective in depressing the central nervous system

# Tested on: cerebral ischemia model
# Assay: Cerebral protective activity in cerebral ischemia model
# Type: in vivo, Wistar-strain male rat
# Settings: 10 mg/kg into the duodenum, 30 minutes before 10 minutes ischemia; after release of ischemia
# Protocol: (2) Cerebral protective activity in cerebral ischemia model
# A Wistar-strain male rat weighing about 400 g was intramuscularly dosed with 0.6 mg of d-tubocurarine to immobilize. After inserting a trachea cannula, the head was fixed to the stereofaxic apparatus under artificial respiration. After incising the head skin and drilling the cranial bone, an electrode for recording electroencephalogram was placed on the surface of the left frontal cortex. After fixing the electrode to the cranial bone using dental cement, the rat was supported in the rear position. Then, a cannula for measuring the blood pressure was intubated to the left femoral artery and another cannula for additionally dosing d-tubocurarine was also intubated to the left femoral vein. The heart rate was measured by a cardiotachometer triggered by pulse pressure.
# After reaching the stable state of several parameters including blood pressure, heart rate and electroencephalogram, the effective ingredient of the present invention which was previously prepared so as to form suspension of 1 ml/kg with 1% tragacanth gum solution was directly dosed into the duodenum in a dose of 10 mg/kg at 30 minutes before cerebral ischemia loading. The control group were dosed by the same volume of 1% tragacanth gum solution only.
# The blood pressure, heart rate and electroencephalogram were monitored 10 to 20 minutes after drug dosing with the multipurpose polygraph (Model RM-85, made by Nihon Kohden Co., Ltd.), and operation was made according to the following procedure:
# Firstly, the ribs were freed from the left costal cartilage and the chest was opened. Then, 30 minutes after drug dosing, the left common carotid artery, left vertebral artery and brachiocephalic artery were simultaneously plugged at the origin of the arteries with artery clips to stop the blood flow into the brain for 10 minutes.
# The resumption of blood flow into the brain was conducted by simultaneously releasing the artery clips which were attached to said positions.
# The cerebral protective activity of the drug against the disturbance after the release of cerebral ischemic load was investigated by the restoration of electroencephalogram.
# During the experiment, the rectal temperature was maintained at 37-38° C. with a heating pad and continuously recorded on the recorder along with electroencephalogram, femoral blood pressure and heart rate.
row,Molecule,restoration of electroencephalogram
1,"O=C1CC(c2cccnc2)=NN1c1ccccc1 [Compound No. 1, 1-phenyl-3-(3-pyridyl)-2-pyrazolin-5-one]",the electroencephalogram appeared with restoration during the releasing
2,O=C1CC(Cc2cccnc2)=NN1c1ccccc1 [compound 24],the electroencephalogram appeared with restoration during the releasing

# Same assay, conditions: 10 mg/kg into the duodenum; after release of ischemia
row,Molecule,function of the pulsation system
1,"O=C1CC(c2cccnc2)=NN1c1ccccc1 [Compound No. 1, 1-phenyl-3-(3-pyridyl)-2-pyrazolin-5-one]",the function of the pulsation system was activated and normalized
2,O=C1CC(Cc2cccnc2)=NN1c1ccccc1 [compound 24],the function of the pulsation system was activated and normalized

# Same assay, conditions: 10 mg/kg into the duodenum; control died 75 minutes in average from blood reflow
row,Molecule,survival period of time
1,"O=C1CC(c2cccnc2)=NN1c1ccccc1 [Compound No. 1, 1-phenyl-3-(3-pyridyl)-2-pyrazolin-5-one]",the survival period of time of the animals of the group was clearly extended
2,O=C1CC(Cc2cccnc2)=NN1c1ccccc1 [compound 24],the survival period of time of the animals of the group was clearly extended

# Tested on: lipid-peroxide formation in cerebral homogenate
# Assay: Lipid-peroxide formation inhibiting activity (TBA method, cerebral homogenate)
# Type: biochemical, Wistar strain male rat
# Settings: at 100 μM; rat cerebral homogenate, 30 minutes at 37° C
# Protocol: (1) Lipid-peroxide formation inhibiting activity
# (a) Preparation of cerebral homogenate
# […]. Then, cerebral irrigation was made with ice-cold physiological saline solution buffered with 50 mM phosphoric acid (pH value of 7.4, hereinafter referred to as "PBS"), and the whole brain was extracted. After removing the cerebellum, the cerebrum was weighed in the wet state, added with PBS of 9 times the weight and homogenized in ice-cold water with a teflon homogenizer. The cerebral homogenate was centrifuged at […] and 2200 rpm for 10 minutes, and 0.3 ml of the supernatant was partitioned into a ground stoppered light-resistant test tube to prepare a cerebral homogenate to be used for drug evaluation.
# (b) Evaluation of test drug
# The cerebral homogenate which was prepared by the above procedure (a) was added with 0.6 ml of PBS and 10 μl of ethanol solution which contained the test drug of […] in final concentration and incubated for 30 minutes in a water bath at 37° C. Then, the mixture was added with 200 μl of aqueous 35% solution of perchloric acid and centrifuged at 4° C and 2,600 rpm for 10 minutes to collect the supernatant.
# In addition, 10 μl of ethanol (blank) was added instead of the test drug.
# (c) Determination of lipid peroxide
# The supernatant of 0.1 ml which was obtained in the above procedure (b) was added with 0.2 ml of aqueous 8.1% sodium dodecyl sulfate solution, 1.5 ml of 20% acetic acid buffer solution (pH of 3.5), 1.5 ml of 0.67% 2-thiobarbituric acid solution and 0.7 ml of distilled water and mixed. The mixed solution was heated for 60 minutes in boiling water bath, quenched with ice-cold water and added with 1.0 ml of distilled water and 5.0 ml of a mixture solution of pyridine and butanol (1:15). After 30 seconds of shaking, the mixed solution was centrifuged at 3,000 rpm for 10 minutes, and the supernatant was collected as the sample for lipid peroxide measurement.
# In addition, 0.1 ml of Lipoperoxide-test reagent (Wako Pure Chemicals Co., Ltd.: 1,1,3,3-tetraethoxypropane is contained by […]) was added instead of the cerebral homogenate obtained in the above procedure (b) to prepare the reference solution
# The amount of lipid peroxide was measured at a excitation wavelength of 515 nm and a fluorescence wavelength of 550 nm using a fluoro-spectrophotometer (Model 204, made by Hitachi, Ltd.) and calculated by the following formula: [formula] where, F=fluorescence intensity of the reference solution
# f=fluorescence intensity of the test drug.
# Then, the inhibition rates of the test drugs at each concentration were obtained for the TBA value of the blank under (b) above and IC value were calculated by the method of least square means.
row,Molecule,Percent inhibition at 100 μM
1,"O=C(O)Cc1ccc(N2N=C(c3cccnc3)CC2=O)cc1 [Compound No. 9, 4-[3-(3-pyridyl)-5-oxo-2-pyrazolin-1-il] phenylacetic acid]",2.6%
2,O=C(O)c1ccc(N2N=C(Cn3ccnc3)CC2=O)cc1 [Compound No. 49],12.9%
3,O=C(O)c1ccc(N2N=C(c3cccnc3)CC2=O)cc1 [compound 7],1.9%
4,O=C1CC(c2cccnc2)=NN1c1ccccn1 [compound 12],43.2%
5,CCC1C(=O)N(C2CCCCC2)N=C1c1cccnc1 (stereo not shown) [compound 21],1.0%
6,CCCC1C(=O)N(C2CCCCC2)N=C1c1cccnc1 (stereo not shown) [compound 23],46.1%
7,O=C(O)c1ccc(N2N=C(Cc3cccnc3)CC2=O)cc1 [compound 29],17.6%
8,O=C1CC(Cn2ccnc2)=NN1C1CCCCC1 [compound 40],39.4%
9,COc1ccc(N2N=C(Cn3ccnc3)CC2=O)cc1 [compound 43],30.2%
10,CCC1C(=O)N(c2ccccc2)N=C1Cn1ccnc1 (stereo not shown) [compound 52],4.3%
11,CC(C)C1C(=O)N(c2ccccc2)N=C1Cn1ccnc1 (stereo not shown) [compound 55],27.3%

# Same assay, conditions: rat cerebral homogenate, incubated 30 minutes at 37° C
row,IC50,Molecule
1,13.6 µM,CCOC(=O)Cc1ccc(N2N=C(c3cccnc3)CC2=O)cc1 [compound 8]
2,7.4 µM,Cc1ccc(N2N=C(Cc3cccnc3)CC2=O)cc1 [compound 25]
3,23.6 µM,COc1ccc(N2N=C(Cc3cccnc3)CC2=O)cc1 [compound 26]
4,12.2 µM,CCOc1ccc(N2N=C(Cc3cccnc3)CC2=O)cc1 [compound 27]
5,4.1 µM,O=C1CC(Cc2cccnc2)=NN1c1ccc(Cl)cc1 [compound 28]
6,24 µM,O=C1CC(Cc2cccnc2)=NN1C1CCCCC1 [compound 30]
7,6.2 µM,O=C1CC(Cc2cccnc2)=NN1c1ccccn1 [compound 31]
8,4.3 µM,O=C1CC(c2ccco2)=NN1c1ccccc1 [compound 32]
9,4.1 µM,Cc1ccc(N2N=C(c3ccco3)CC2=O)cc1 [compound 33]
10,6.5 µM,COc1ccc(N2N=C(c3ccco3)CC2=O)cc1 [compound 34]
11,3.7 µM,O=C1CC(c2ccco2)=NN1c1ccc(Cl)cc1 [compound 35]
12,8.3 µM,O=C1CC(c2ccco2)=NN1C1CCCCC1 [compound 36]
13,15.4 µM,O=C1CC(c2ccco2)=NN1c1ccccn1 [compound 37]
14,60.1 µM,O=C1CC(Cn2ccnc2)=NN1c1ccccc1 [compound 38]
15,43 µM,Cc1ccc(N2N=C(Cn3ccnc3)CC2=O)cc1 [compound 39]
16,60 µM,Cc1cccc(N2N=C(Cn3ccnc3)CC2=O)c1 [compound 41]
17,24.4 µM,CCc1ccc(N2N=C(Cn3ccnc3)CC2=O)cc1 [compound 42]
18,22.7 µM,O=C1CC(Cn2ccnc2)=NN1c1ccc(Cl)cc1 [compound 44]
19,11 µM,O=C1CC(Cn2ccnc2)=NN1c1ccc(Cl)c(Cl)c1 [compound 45]
20,60.5 µM,CCOC(=O)Cc1ccc(N2N=C(Cn3ccnc3)CC2=O)cc1 [compound 46]
21,35.1 µM,CCOC(=O)c1ccc(N2N=C(Cn3ccnc3)CC2=O)cc1 [compound 47]
22,51.3 µM,O=C1CC(Cn2ccnc2)=NN1c1ccccn1 [compound 51]
23,38.2 µM,CCC1C(=O)N(c2ccc(C)cc2)N=C1Cn1ccnc1 (stereo not shown) [compound 53]
24,37.8 µM,CCC1C(=O)N(c2ccc(Cl)cc2)N=C1Cn1ccnc1 (stereo not shown) [compound 54]

row,Molecule,IC50
1,"O=C1CC(c2cccnc2)=NN1c1ccccc1 [Compound No. 1, 1-phenyl-3-(3-pyridyl)-2-pyrazolin-5-one]",23.6 µM
2,COc1ccc(N2N=C(c3cccnc3)CC2=O)cc1 [Compound No. 4],37 µM
3,CCOc1ccc(N2N=C(c3cccnc3)CC2=O)cc1 [Compound No. 5],12.9 µM
4,"O=C1CC(c2cccnc2)=NN1c1ccc(O)cc1 [Compound No. 10, 1-(4-hydroxyphenyl)-3-(3-pyridyl)-2-pyrazolin-5-one]",102 µM
5,Cc1ccc(N2N=C(c3cccnc3)CC2=O)cc1 [compound 2],10.3 µM
6,CCc1ccc(N2N=C(c3cccnc3)CC2=O)cc1 [compound 3],4 µM
7,O=C1CC(c2cccnc2)=NN1c1ccc(Cl)cc1 [compound 6],4.3 µM
8,O=C1CC(c2cccnc2)=NN1C1CCCCC1 [compound 11],16.9 µM
9,O=C1CC(c2cccnc2)=NN1c1nc2ccccc2s1 [compound 13],84.1 µM
10,CC1C(=O)N(c2ccccc2)N=C1c1cccnc1 (stereo not shown) [compound 14],38.9 µM
11,Cc1ccc(N2N=C(c3cccnc3)C(C)C2=O)cc1 (stereo not shown) [compound 15],12.5 µM
12,COc1ccc(N2N=C(c3cccnc3)C(C)C2=O)cc1 (stereo not shown) [compound 16],46.3 µM
13,CC1C(=O)N(c2ccc(Cl)cc2)N=C1c1cccnc1 (stereo not shown) [compound 17],7.1 µM
14,CC1C(=O)N(C2CCCCC2)N=C1c1cccnc1 (stereo not shown) [compound 18],29.3 µM
15,CC1C(=O)N(c2ccccn2)N=C1c1cccnc1 (stereo not shown) [compound 19],12.3 µM
16,CCC1C(=O)N(c2ccccc2)N=C1c1cccnc1 (stereo not shown) [compound 20],29.4 µM
17,CCCC1C(=O)N(c2ccccc2)N=C1c1cccnc1 (stereo not shown) [compound 22],28.2 µM
18,O=C1CC(Cc2cccnc2)=NN1c1ccccc1 [compound 24],16.4 µM

# Tested on: not given
# Assay: not given
# Settings: cited from earlier work
row,Molecule,solubility in water
1,COC1=C(OC)C(=O)C(CCCCCCCCCCO)=C(C)C1=O [Idebenon],difficult to dissolve in water
